Measurements from patent US6692937B2, “DNA encoding small and intermediate conductance calcium-activated potassium channels” (ICAgen, Incorporated, priority 1997, dated 2004).
Where two headings read alike, the source gives them in different places.

Assays:
Format in all cases: cell-based
rSK2 = target: T1, rSK2 (Rattus norvegicus, UniProt P70604); experiment: Macroscopic currents in inside-out macropatches excised from Xenopus oocytes expressing rSK2
T1 construct: expressed in transfected cells; host or cells: Xenopus oocytes injected with in vitro transcribed mRNA
Text: (§1) Electrode resistance was typically 2-5 MΩ. Membrane patches were voltage clamped using an Axopatch 200A amplifier (Axon Instruments).
(§2) To compare hIK1 and SK2, normalized current was plotted as a function of Ca^2+ concentration, and the data points fitted with the Hill equation.

hSK1 = target: T2, hSK1 (Homo sapiens, UniProt Q92952); experiment: Macroscopic currents in inside-out macropatches excised from Xenopus oocytes expressing hSK1
T2 construct: expressed in transfected cells; host or cells: Xenopus oocytes injected with in vitro transcribed mRNA
Text: as §1

hIK1 = target: T3, hIK1 (Homo sapiens, UniProt O15554); experiment: Macroscopic hIK1 currents in macropatches excised from Xenopus oocytes
T3 construct: expressed in transfected cells; host or cells: Xenopus oocytes injected with SP6-transcribed mRNA from vector pBF
Description: 3B. Example 3B describes the electrophysiology of the hIK1 channel. All hIK1 channel subunits were subcloned into the oocyte expression vector pBF (unpublished, graciously provided by Dr. B. Fakler) which provides 5′ and 3′ untranslated regions from the Xenopus β-globin gene flanking a polylinker containing multiple restriction sites. In vitro mRNAs were generated using SP6 polymerase (GibcoBRL); following synthesis, mRNAs were evaluated spectrophotometrically and by ethidium bromide staining after agarose gel electrophoresis.
As described above, Xenopus care and handling were in accordance with the highest standards of institutional guidelines. Frogs underwent no more than two surgeries, separated by at least three weeks, and All surgeries were performed using well established techniques. Frogs were anesthetized with an aerated solution of 3-aminobenzoic acid ethyl ester. Oocytes were studied 2-14 days after injection with 0.5-5 ng of mRNA.
Inside-out macropatches were excised into an intracellular solution containing 116 mM K-gluconate. 4 mM KCl, 10 mM HEPES (pH 7.2, adjusted with KOH) supplemented with CaCl2 to give free calcium concentration of 5 μM; the proportion of calcium binding to gluconate was determined by a computer program (CaBuf assuming a stability constant for Ca^2+ gluconate of 15.9M^−1 (Dawson et al., 1969). To obtain Ca^2+ concentrations below 1 μM, 1 mM EGTA was added to the bath solution and CaCl2 was added as calculated using the CaBuf program and published stability constants (Fabiato and Fabiato, 1979). Electrodes were pulled from thin-wailed, filamented borosilicate glass (World Precision Instruments) and filled with 116 mM K-gluconate, 4 mM KCl, 10 mM HEPES (pH 7.2). Electrode resistance was typically 2-5 MΩ. For outside-out macropatches, the solutions were reversed. Membrane patches were voltage clamped using an Axopatch 200A amplifier (Axon Instruments). The data were low-pass Bessel filtered at 1 kH and acquired using Pulse software (HEKA Electronik). Analysis was performed using Pulse, Kaleidagraph (Abelbeck), or IGOR (Wavemetrics) software. Unless otherwise stated all experiments were performed at room temperature from a holding potential of 0 mV. 2.5 second voltage ramps from −100 to either 60 or 100 mV were acquired at a sampling frequency of 500 Hz. Values were expressed as mean±SD. Statistical differences were determined using an unpaired t-test; p values <0.05 were considered significant.
as §2

T2 sequence (Q92952 other isoform, or with tags, fused parts or gaps): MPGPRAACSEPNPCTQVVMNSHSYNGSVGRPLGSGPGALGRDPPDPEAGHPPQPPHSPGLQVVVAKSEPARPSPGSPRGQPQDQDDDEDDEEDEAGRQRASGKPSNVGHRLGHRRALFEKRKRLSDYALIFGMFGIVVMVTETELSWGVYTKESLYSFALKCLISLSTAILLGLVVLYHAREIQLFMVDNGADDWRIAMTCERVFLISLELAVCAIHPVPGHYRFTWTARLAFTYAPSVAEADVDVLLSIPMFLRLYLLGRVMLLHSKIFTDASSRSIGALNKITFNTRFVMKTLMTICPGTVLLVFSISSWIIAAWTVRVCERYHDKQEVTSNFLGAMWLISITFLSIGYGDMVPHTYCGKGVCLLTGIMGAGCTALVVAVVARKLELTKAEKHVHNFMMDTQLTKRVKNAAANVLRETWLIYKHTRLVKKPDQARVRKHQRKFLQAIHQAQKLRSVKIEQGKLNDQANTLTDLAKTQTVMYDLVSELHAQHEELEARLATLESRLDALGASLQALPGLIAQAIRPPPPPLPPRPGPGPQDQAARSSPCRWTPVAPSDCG
T1 sequence (P70604 whole entry): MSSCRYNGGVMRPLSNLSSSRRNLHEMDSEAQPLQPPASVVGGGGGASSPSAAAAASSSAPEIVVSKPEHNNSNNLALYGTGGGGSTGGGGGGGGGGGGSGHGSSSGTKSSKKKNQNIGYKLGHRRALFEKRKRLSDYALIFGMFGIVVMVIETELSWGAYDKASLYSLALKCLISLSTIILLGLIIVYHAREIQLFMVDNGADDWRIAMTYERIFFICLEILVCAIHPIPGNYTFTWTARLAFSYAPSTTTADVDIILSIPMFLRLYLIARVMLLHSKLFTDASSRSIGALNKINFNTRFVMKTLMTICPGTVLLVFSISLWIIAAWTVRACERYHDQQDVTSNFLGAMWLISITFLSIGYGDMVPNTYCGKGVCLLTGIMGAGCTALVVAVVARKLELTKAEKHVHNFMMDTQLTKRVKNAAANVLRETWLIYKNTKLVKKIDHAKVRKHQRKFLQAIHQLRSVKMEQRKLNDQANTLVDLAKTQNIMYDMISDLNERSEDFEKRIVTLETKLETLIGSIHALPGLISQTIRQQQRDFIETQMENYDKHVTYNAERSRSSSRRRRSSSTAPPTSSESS

COc1cc2c3cc1Oc1cc(ccc1O)C[C@@H]1c4c(cc(OC)c(O)c4Oc4ccc(cc4)C[C@@H]3N(C)CC2)CC[N+]1(C)C [dTC, d-tubocurare, reference compound]
Kd (rSK2; 5 μM Ca2+, inside-out macropatches, dTC in patch pipette, read-out: Kd for block of rSK2 currents): 2400 nM | fold less sensitive, hSK1 versus rSK2 (hSK1; ratio of Kd hSK1 to Kd rSK2): approximately 30 fold | Kd (hSK1; read-out: Kd for block of hSK1): 76200 nM

iberiotoxin (QFTDVDCSVSKECWSVCKDLFGVDRGKCMGKKCRCYQ) [IBX]
block of hIK1 currents (hIK1; 50 nM IBX): 15±3%

[Ca+2] [calcium]
Hill coefficient of calcium dependence, rSK2 (rSK2; Hill fit, 8 patches): 4.81±1.46 | Hill coefficient of Ca2+-dependence, SK2 (rSK2; n=4): 3.5±0.4 | Kd (rSK2; slope conductance at reversal potential versus calcium, Hill fit, 8 patches, read-out: average Kd for calcium, rSK2): 630 ± 230 nM | Hill coefficient of calcium dependence, hSK1 (hSK1; Hill fit): 3.90±0.45 | Kd (hSK1; Hill fit, read-out: Kd for calcium, hSK1): 700 ± 60 nM | Hill coefficient of Ca2+-dependence, hIK1 (hIK1; n=7): 1.7±0.3 | EC50 (hIK1; normalized current versus Ca2+ concentration, n=7, read-out: K0.5 (concentration for half-maximal activation), hIK1): 320 ± 30 nM

CC(C)C[C@@H]1NC(=O)[C@H](C)NC(=O)[C@H]([C@@H](C)O)NC(=O)[C@H](CCC(=O)O)NC(=O)[C@@H]2CCCN2C(=O)[C@H](C)NC(=O)[C@H](CCCCN)NC(=O)[C@@H]2CSSC[C@@H](C(=O)N[C@@H](CCC(N)=O)C(=O)N[C@@H](CCC(N)=O)C(=O)N[C@@H](Cc3cnc[nH]3)C(N)=O)NC(=O)[C@H](CCCNC(=N)N)NC(=O)[C@H](CCCNC(=N)N)NC(=O)[C@H](C)NC(=O)[C@H](CSSC[C@H](N)C(=O)N[C@@H](CC(N)=O)C(=O)N2)NC1=O [apamin]
reduction of hIK1 currents (hIK1; 100 nM apamin): 12±5%

CC(=O)N1CCN(c2ccc(OCC3COC(Cn4ccnc4)(c4ccc(Cl)cc4Cl)O3)cc2)CC1 (stereo not shown) [ketoconazole]
block of hIK1 (hIK1; 10 μM ketoconazole): 24±6%
